Assays:
[1] = both, human, in vivo
Experimental: Researchers conducted the prospective observational study and collected the hospital information and laboratory information at one tertiary hospital from January 2018 to December 2019. […] This study was approved by the Ethics Committee of The Second […] Hospital of Central South University with an approved NO. yxlb-lays-2018012. Venous blood samples (2 mL) were collected into anticoagulant tubes. […] Monitoring continued every 3 days. […] The two-dimensional separation conditions consisted of FRO C18 (100 mm × 3.0 mm, 5 μm, ANAX) and ASTON HD C18 (150 mm × 4.6 mm, 5 μm, ANAX) with the same flow rate 1.0 mL/min. […] This laboratory participated in the annual national external quality assessment scheme. […] The Child-Pugh class and MELD score were calculated based on previous criteria. The Pearson correlation and nonparametric Spearman correlation were used to study the relationship between clinical or laboratory data and Cmins during the therapy, according to the type of variables. […] The Cmins measured after withdrawal or lack of the corresponding key values of clinical or laboratory data were excluded in pairs in the bivariate correlation analysis or in rows in the multiple linear regression. For the regression analysis, the genotype of CYP2C19 was set as a dummy variable.

[2] = Voriconazole-related adverse events in Child–Pugh class C patients; format: in vivo, human
Excerpt: Forty-three CP-C Asian patients were eligible to participate in the study (Figure 1a). The female-to-male ratio was 4/39. The mean patient age and weight were 49.35 ± 11.65 years (range, 32 to 89 years) and 61.27 ± 12.87 kg (range, 36 to 99 kg). […] The median sampling time of C0 was 5 days (interquartile range (IQR), 3 to 5 days; range, 3 to 11 days).
Researchers conducted the prospective observational study and collected the hospital information and laboratory information at one tertiary hospital from January 2018 to December 2019. […] The administration regimen is mainly under empirical treatment regimens, and the adjustment is generally based on the results of TDM. This study was approved by the Ethics Committee of The Second XiangYa Hospital of Central South University with an approved NO. yxlb-lays-2018012.
Data were extracted from medical records and laboratory information systems, including voriconazole-related information (Cmins, timing, amount, route), demographics, laboratory data, and concomitant medications (antimicrobial agents, CYP2C19 inducers, and inhibitors). The first trough concentration, the repeated measured ones and the last one of patients were recorded as C0, C1, Css, respectively. The Child–Pugh class and MELD score were calculated based on previous criteria.

[3] = cited from earlier work
[4] = CP-C patients in ICU; cited from earlier work

- Decrease of Cmin in male patients compared to the female [1]: 1651 ng/mL
- Decrease of concentration with a one-unit increase in PTA count [1]: 0.035 mg/L
- Patients with targeted C0 reaching supratherapeutic levels with no adjusted daily dose [1]: 25.8%
Compound: C[C@@H](c1ncncc1F)[C@](O)(Cn1cncn1)c1ccc(F)cc1F [voriconazole]
- Patients with adverse events identified as voriconazole related ([2]; 20 of 43 patients, dizziness, hallucinations, visual disturbance): 46.5%
- Median duration from voriconazole initiation to onset of adverse events ([2]; range, 1 to 12 days): 2 days
- Oral bioavailability [3]: 91.6%
- Change of terminal half-life (t1/2) [4]: increased about five times
- Median terminal t1/2 [4]: 60.7 h

Source: article PMC8470058 (Antibiotics, 2021)
